Experimental data taken from ChEMBL document CHEMBL1129998, “Pharmacological options in the treatment of benign prostatic hyperplasia” (J Med Chem, 1997).

Columns and labels:
[1] = molecular target: T1, Alpha-1A adrenergic receptor (Homo sapiens, UniProt P35348); experiment: Binding affinity was tested on human Alpha-1A adrenergic receptor
T1 sequence (P35348 whole entry): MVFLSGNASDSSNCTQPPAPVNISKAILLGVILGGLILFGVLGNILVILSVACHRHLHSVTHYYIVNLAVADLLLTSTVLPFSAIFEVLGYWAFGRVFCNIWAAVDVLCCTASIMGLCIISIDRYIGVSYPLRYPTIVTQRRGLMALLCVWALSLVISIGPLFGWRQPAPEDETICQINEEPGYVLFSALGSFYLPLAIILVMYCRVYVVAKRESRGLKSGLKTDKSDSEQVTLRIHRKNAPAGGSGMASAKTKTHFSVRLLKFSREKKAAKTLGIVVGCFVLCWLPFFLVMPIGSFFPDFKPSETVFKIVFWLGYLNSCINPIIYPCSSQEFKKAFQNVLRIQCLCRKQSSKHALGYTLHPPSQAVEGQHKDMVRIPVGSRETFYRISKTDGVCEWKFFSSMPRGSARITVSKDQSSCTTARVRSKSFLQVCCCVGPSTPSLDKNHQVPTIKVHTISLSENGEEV

[2] = molecular target: T2, Alpha-1D adrenergic receptor (Homo sapiens, UniProt P25100); experiment: Binding affinity was tested on human Alpha-1D adrenergic receptor
T2 sequence (P25100 whole entry): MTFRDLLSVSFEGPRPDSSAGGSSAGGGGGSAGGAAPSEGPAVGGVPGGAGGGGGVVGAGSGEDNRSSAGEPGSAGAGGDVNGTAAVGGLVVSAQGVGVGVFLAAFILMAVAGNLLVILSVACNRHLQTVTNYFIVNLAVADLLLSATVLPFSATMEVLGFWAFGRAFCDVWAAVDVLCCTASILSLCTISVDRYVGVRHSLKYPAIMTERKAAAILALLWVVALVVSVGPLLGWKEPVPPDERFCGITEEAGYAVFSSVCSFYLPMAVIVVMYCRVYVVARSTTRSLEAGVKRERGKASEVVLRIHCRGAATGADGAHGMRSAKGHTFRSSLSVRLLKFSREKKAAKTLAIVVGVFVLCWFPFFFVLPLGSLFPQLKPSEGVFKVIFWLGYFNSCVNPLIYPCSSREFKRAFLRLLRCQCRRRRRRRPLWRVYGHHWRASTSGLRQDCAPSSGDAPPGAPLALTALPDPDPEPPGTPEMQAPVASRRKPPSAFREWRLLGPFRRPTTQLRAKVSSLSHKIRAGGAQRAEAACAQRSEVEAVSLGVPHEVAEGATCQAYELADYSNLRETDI

[3] = molecular target: T3, Alpha-1B adrenergic receptor (Homo sapiens, UniProt P35368); experiment: Binding affinity was tested on human Alpha-1B adrenergic receptor
T3 sequence (P35368 whole entry): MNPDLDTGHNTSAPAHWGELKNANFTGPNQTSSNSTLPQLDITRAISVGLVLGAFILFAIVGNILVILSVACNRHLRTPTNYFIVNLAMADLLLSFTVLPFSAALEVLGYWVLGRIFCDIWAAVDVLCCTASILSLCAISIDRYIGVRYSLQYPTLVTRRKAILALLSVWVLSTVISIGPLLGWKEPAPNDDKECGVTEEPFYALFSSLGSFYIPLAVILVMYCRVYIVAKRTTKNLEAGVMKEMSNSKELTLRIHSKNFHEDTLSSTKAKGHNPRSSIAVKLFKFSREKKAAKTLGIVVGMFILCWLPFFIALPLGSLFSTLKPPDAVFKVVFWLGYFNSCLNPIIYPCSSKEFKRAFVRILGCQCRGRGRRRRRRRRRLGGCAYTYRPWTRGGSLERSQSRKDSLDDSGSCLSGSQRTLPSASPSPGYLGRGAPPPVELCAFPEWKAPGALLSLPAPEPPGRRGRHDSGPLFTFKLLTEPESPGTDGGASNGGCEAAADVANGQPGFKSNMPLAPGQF

[4] = molecular target: T4, 3-oxo-5-alpha-steroid 4-dehydrogenase 1 (Homo sapiens, UniProt P18405); experiment: Inhibitory concentration was tested on human 5-alpha reductase 1 isozyme
T4 sequence (P18405 whole entry): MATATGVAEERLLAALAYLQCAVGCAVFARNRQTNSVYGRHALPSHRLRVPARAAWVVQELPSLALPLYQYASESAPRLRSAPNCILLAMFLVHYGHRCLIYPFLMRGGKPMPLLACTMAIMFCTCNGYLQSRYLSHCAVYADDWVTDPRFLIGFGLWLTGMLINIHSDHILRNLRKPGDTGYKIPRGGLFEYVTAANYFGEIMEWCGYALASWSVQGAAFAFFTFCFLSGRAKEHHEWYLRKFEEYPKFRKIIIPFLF

[5] = molecular target: T5, 3-oxo-5-alpha-steroid 4-dehydrogenase 2 (Homo sapiens, UniProt P31213); experiment: Inhibition of human 5-alpha reductase 2 isozyme.
T5 sequence (P31213 whole entry): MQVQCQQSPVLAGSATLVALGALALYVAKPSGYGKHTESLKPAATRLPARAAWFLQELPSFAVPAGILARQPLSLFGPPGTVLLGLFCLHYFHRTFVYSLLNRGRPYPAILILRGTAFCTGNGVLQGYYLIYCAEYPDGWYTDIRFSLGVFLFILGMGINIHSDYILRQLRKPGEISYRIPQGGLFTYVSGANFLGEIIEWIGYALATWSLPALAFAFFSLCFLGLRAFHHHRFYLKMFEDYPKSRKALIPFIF

[6] = molecular target: T6, Steroid 5-alpha-reductase (Rattus norvegicus, UniProt P24008+P31214); experiment: Inhibition of rat 5-alpha reductase isozyme.; format: protein assay
T6 sequence (P24008 whole entry): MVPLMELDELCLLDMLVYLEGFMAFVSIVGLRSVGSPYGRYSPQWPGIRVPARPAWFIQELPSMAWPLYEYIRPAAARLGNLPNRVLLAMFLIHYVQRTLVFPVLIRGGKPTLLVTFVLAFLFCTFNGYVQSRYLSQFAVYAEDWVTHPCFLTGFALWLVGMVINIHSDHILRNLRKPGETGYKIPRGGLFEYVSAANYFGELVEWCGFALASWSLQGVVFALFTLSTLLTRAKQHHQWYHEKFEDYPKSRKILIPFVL
T6 sequence (P31214 whole entry): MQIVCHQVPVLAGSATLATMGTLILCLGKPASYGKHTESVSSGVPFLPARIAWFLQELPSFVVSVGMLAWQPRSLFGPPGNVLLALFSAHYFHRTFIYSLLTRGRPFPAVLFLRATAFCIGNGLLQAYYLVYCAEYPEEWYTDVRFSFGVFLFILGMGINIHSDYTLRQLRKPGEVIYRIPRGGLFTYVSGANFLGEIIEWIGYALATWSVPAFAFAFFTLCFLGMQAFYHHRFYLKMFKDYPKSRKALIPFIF

Compound	Ki [1] [nM]	Ki [2] [nM]	Ki [3] [nM]	IC50 [4] [nM]	IC50 [5] [nM]	IC50 [6] [nM]
COc1ccc(CCNCC2CCc3ccccc3C2)cc1 (configuration not stated)	3.98	158	39.8			
CN(C(=O)[C@H]1CCC2C3CCC4NC(=O)C=C[C@]4(C)C3CC[C@@]21C)c1ccccc1 (some centres not stated)				350	0.2	
CCN(CC)C(=O)[C@H]1CC[C@H]2[C@@H]3CC[C@H]4N(C)C(=O)CC[C@]4(C)[C@H]3CC[C@]12C				1.7	1.9	9.5
CC(C)Cc1ccc([C@H](C)Oc2ccc(C(=O)c3cn(CCCC(=O)O)c4ccccc34)cc2)cc1				40	4	1
C[C@]12C=CC(=O)NC1CCC1C2CC[C@@]2(C)C1CC[C@@H]2C(=O)Nc1cccc(-c2ccccc2)c1 (some centres not stated)				14	< 0.1	
C[C@]12C=CC(=O)NC1CCC1C2CC[C@@]2(C)C1CC[C@@H]2C(=O)N(c1ccccc1)c1ccccc1 (some centres not stated)				> 1000	25.2	
Cc1c(O[C@@H](C)c2ccc(CC(C)C)cc2)ccc(C(=O)Nc2ccccc2OCCCC(=O)O)c1C					256	
O=C(O)c1ccc2c(c1)CCc1cc(Br)ccc1-2				26	10000	
COc1cc2nc(N3CCN(C(=O)c4ccco4)[C@H]4CCCC[C@H]43)nc(N)c2cc1OC [CYCLAZOSIN]	25.1					
CC(C)Cc1ccc([C@]2(C)Oc3ccc(C(=O)c4cn(CCCC(=O)O)c5ccccc45)cc3O2)cc1				25	23	9
CCC1=C(C(=O)NCCCN2CCC(c3ccccc3)(c3ccccc3)CC2)C(c2ccc([N+](=O)[O-])cc2)/C(=C(\O)OC)C(C)=N1 (configuration not stated)	0.661	204	148			
COc1cccc(OC)c1OCCNCC1COc2ccccc2O1 (configuration not stated)	0.158					
CO/C(O)=C1\C(C)=NC(C)=C(C(=O)NCCCCN2CCC(c3ccccc3)(c3ccccc3)CC2)C1c1ccc([N+](=O)[O-])cc1 (configuration not stated)	5.89	145	64.6			
C[C@]12C=CC(=O)NC1CCC1C2CC[C@@]2(C)C1CC[C@@H]2C(=O)Nc1cccc2ccccc12 (some centres not stated)				8.1	0.2	
C[C@]12C=CC(=O)NC1CCC1C2CC[C@@]2(C)C1CC[C@@H]2C(=O)Nc1cc(C(F)(F)F)ccc1C(F)(F)F (some centres not stated)				2.4	0.5	
CCN1C(=O)CC[C@]2(C)C3CC[C@@]4(C)C(CC[C@@H]4C(C)CCCC(C)C)C3[C@@H](C)CC12 (some centres not stated)				3.3	1390	
CO/C(O)=C1\C(C)=NC(C)=C(C(=O)NCCCN2CCC(c3ccccc3)(c3ccccc3)CC2)C1c1ccc(OC(C)C)cc1 (configuration not stated)	69.2	891	174			

Compound	Ki [1] [nM]	Ki [2] [nM]	Ki [3] [nM]	IC50 [4] [nM]	IC50 [5] [nM]	IC50 [6] [nM]
COc1ccccc1N1CCN(CCN2C(=O)CC3(CCCC3)CC2=O)CC1			631			
Cc1c(C(=O)c2ccc3c(c2)OC(c2ccc(Cl)cc2)(c2ccc(Cl)cc2)O3)c2ccccc2n1CCCC(=O)O				10	6300	588
CC(C)CCCC(C)[C@H]1CCC2C3CCC4N(C)C(=O)CC[C@]4(C)C3CC[C@@]21C (some centres not stated)				1.7	218	
CC(C)Cc1ccc(C(Nc2cccc(C(=O)c3cn(CCCC(=O)O)c4ccccc34)c2)c2ccc(CC(C)C)cc2)cc1				38	36	128
C[C@H](Cc1cc2c(c(C(N)=O)c1)N(CCCO)CC2)NCCOc1ccccc1OCC(F)(F)F [SILODOSIN]	0.0398	2	20			
CCOc1ccccc1OCCN[C@H](C)Cc1ccc(OC)c(S(N)(=O)=O)c1 (stereo in doubt; form 3) [TAMSULOSIN]		7.94	100			
COc1c(C)c(C)c(O)c(C)c1CN(C)CCOc1cc(C)c(O)cc1C(C)C	0.398	1.26	1.26			
CN1C(=O)CC[C@]2(C)c3ccc(Cl)cc3CCC12 (some centres not stated)				17		
CCC1=NC(CC)=C(C(=O)NCCCN2CCC(c3ccccc3)(c3ccccc3)CC2)C(c2ccc([N+](=O)[O-])cc2)/C1=C(\O)OC (configuration not stated)	1.26	447	282			
CCCc1ccc(OC(C)c2ccc(C(=O)c3cn(CCCC(=O)O)c4ccccc34)cc2)cc1 (configuration not stated)				8	10	5
C[C@]12C=CC(=O)NC1CCC1C2CC[C@@]2(C)C1CC[C@@H]2C(=O)Nc1ccccc1 (some centres not stated)				20	< 0.1	
CC(=O)CC(=O)NCCCN1CCC(c2ccccc2)(c2ccccc2)CC1	100					
C[C@]12C=CC(=O)NC1CCC1C2CC[C@@]2(C)C1CC[C@@H]2C(=O)Nc1ccccc1C(F)(F)F (some centres not stated)				5.6	< 0.1	
COc1cc2nc(N(C)CCCNC(=O)C3CCCO3)nc(N)c2cc1OC (configuration not stated) [ALFUZOSIN]			10			
CCOc1ccccc1OCCN[C@H](C)Cc1ccc(OC)c(S(N)(=O)=O)c1 (stereo in doubt; form 2) [TAMSULOSIN]			1.26			
CC(C)CCCC(C)[C@H]1CCC2C3C(CC[C@@]21C)[C@@]1(C)CCC(=O)N(C)C1C[C@@H]3c1ccccc1 (some centres not stated)				134	428	
CC(C)CCCC(C)[C@H]1CCC2C3CC=C4NC(=O)CC[C@]4(C)C3CC[C@@]21C (some centres not stated)				19.1		
